Laboratory results taken from ChEMBL document CHEMBL1201862, “PubChem BioAssay data set” (2004).
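Results reflect a 48-hour exposure of cells in 96-well plates to compound at five concentrations. Here, GI50 denotes the concentration required for 50% inhibition of growth.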 Active and inactive are the calls of the source. Rule as the data show it: active = GI50 up to about 1.1 µM and inactive = higher.

Legend:
Assay in all cases: DTP human tumour cell line panel, 48 h
IGROV-1 = test system: IGROV-1
MDA-MB-435 = test system: MDA-MB-435
HOP-62 = test system: HOP-62
NCI-H460 = test system: NCI-H460
NCI-H522 = test system: NCI-H522
U-251 = test system: U-251
HCT-116 = test system: HCT-116
DU-145 = test system: DU-145
K562 = test system: K562
A549 = test system: A549
SK-OV-3 = test system: SK-OV-3
HT-29 = test system: HT-29
OVCAR-5 = test system: OVCAR-5
SR = test system: SR
EKVX = test system: EKVX
Hs-578T = test system: Hs-578T
HOP-92 = test system: HOP-92
OVCAR-3 = test system: OVCAR-3
SF-539 = test system: SF-539
HL-60 = test system: HL-60

SMILES | GI50 (IGROV-1) | GI50 (MDA-MB-435) | GI50 (HOP-62) | GI50 (NCI-H460) | GI50 (NCI-H522) | GI50 (U-251) | GI50 (HCT-116) | GI50 (DU-145) | GI50 (K562) | GI50 (A549) | GI50 (SK-OV-3) | GI50 (HT-29) | GI50 (OVCAR-5) | GI50 (SR) | GI50 (EKVX) | GI50 (Hs-578T) | GI50 (HOP-92) | GI50 (OVCAR-3) | GI50 (SF-539) | GI50 (HL-60)
Cc1nc(-n2nc(-c3ccccc3)cc2-c2ccccc2)sc1C(=O)/C=C/c1ccc([N+](=O)[O-])cc1 | 20.5 µM (inactive) | 16 µM (inactive) | 20.1 µM (inactive) | 25.2 µM (inactive) | 16.5 µM (inactive) | 16 µM (inactive) | 12.7 µM (inactive) | 21.8 µM (inactive) | 14.2 µM (inactive) | > 59.7 µM (inactive) | > 65.8 µM (inactive) | 16.3 µM (inactive) | > 59.4 µM (inactive) | 2.86 µM (inactive) | > 43 µM (inactive) | 27.7 µM (inactive) | > 56.5 µM (inactive) | 10.4 µM (inactive) | 11.2 µM (inactive) | 17.2 µM (inactive)
OCCn1cnc2c(SCc3ccccc3)ncnc21 | > 100 µM (inactive) | > 100 µM (inactive) | > 100 µM (inactive) | 19.6 µM (inactive) | 97.9 µM (inactive) | 52.4 µM (inactive) | 48.8 µM (inactive) | > 100 µM (inactive) | 79.4 µM (inactive) | > 100 µM (inactive) | > 100 µM (inactive) | > 100 µM (inactive) | > 100 µM (inactive) | 19.5 µM (inactive) | > 100 µM (inactive) | 69.7 µM (inactive) | > 100 µM (inactive) | > 100 µM (inactive) | 87.5 µM (inactive) | 68.1 µM (inactive)
O=C1CSC(c2ccccc2O)N1c1ccc(-c2ccc(-n3c(-c4ccccc4)nc4ccccc4c3=O)cc2)cc1 (stereo not given) | 15.3 µM (inactive) | 33.5 µM (inactive) | 39.6 µM (inactive) | 35.7 µM (inactive) | 19.2 µM (inactive) | 33.7 µM (inactive) | 29.5 µM (inactive) | 49 µM (inactive) | 24.9 µM (inactive) | 21.3 µM (inactive) | 64.1 µM (inactive) | 13.3 µM (inactive) | 43.1 µM (inactive) | 54.3 µM (inactive) | 37.4 µM (inactive) | 40.1 µM (inactive) | 27.6 µM (inactive) | 34.8 µM (inactive) | 32.1 µM (inactive) | 23.4 µM (inactive)
NC(Cc1ccccc1)c1nn[nH]n1 (stereo not given) | > 100 µM (inactive) | > 100 µM (inactive) | > 100 µM (inactive) | > 100 µM (inactive) | > 100 µM (inactive) | > 100 µM (inactive) | > 100 µM (inactive) | > 100 µM (inactive) | 0.0476 µM (active) | > 100 µM (inactive) | > 100 µM (inactive) | > 100 µM (inactive) | > 100 µM (inactive) | > 100 µM (inactive) | > 100 µM (inactive) | > 100 µM (inactive) | > 100 µM (inactive) | > 100 µM (inactive) | > 100 µM (inactive) | > 100 µM (inactive)
CC(C)SC(=S)Sc1c(Cl)c(Cl)nc(Cl)c1Cl | 7.33 µM (inactive) | 7.38 µM (inactive) | 5.85 µM (inactive) | 17.1 µM (inactive) | 4.9 µM (inactive) | 3.98 µM (inactive) | 10.5 µM (inactive) | 3.94 µM (inactive) | 2.97 µM (inactive) | 16.9 µM (inactive) | 17.8 µM (inactive) | 3.4 µM (inactive) | 16.3 µM (inactive) | 2.83 µM (inactive) | 8.22 µM (inactive) | 18.6 µM (inactive) | 7.69 µM (inactive) | 1.85 µM (inactive) | 10.9 µM (inactive) | 2.44 µM (inactive)
